Assay results as given in patent publication US6576266B1, “Plant extract based on glycerides, a method for the preparation of this extract and a cosmetic composition containing the same” (Sodic SA, priority 1999, dated 2003).

What was measured:
[1] = tested on: reduction of cytochrome c (xanthin oxidase); test: Radical scavenging: slowing-down of the reduction of cytochrome c (Fridovitch and McCord); type: biochemical; settings: 0.6315 mg/ml, phosphate buffer pH 7.8, 25° C.
Text: The experimental method is based on the procedure developed in 1973 by Fridovitch and McCord for SOD (J. Biol. Chem. 248, 2648).
The determination of the radical scavenging properties is based on the measurement of the inhibition or of the slowing-down of the reduction of cyto-chrome c by the product investigated, by comparison with the effect exerted by xanthin oxidase. The formation of reduced cytochrome c is monitored by spectrophotometry at 550 nm.
In these tests, a plant extract powder of the invention is used at a concentration of 1.5 mg/ml in a phosphate buffer pH 7.8 at 25° C.
Furthermore, an additional test was carried out with Dgdg alone, in the same conditions as above, but using the Fluka 36975 product having a purity of 95%.

[2] = biological target: T1, elastase of human leukocytes (EHL) (Homo sapiens, UniProt P08246); test: Inhibitory action against elastase (synthetic substrate, spectrophotometry at 405 nm); type: biochemical
T1 sequence (P08246 30-267): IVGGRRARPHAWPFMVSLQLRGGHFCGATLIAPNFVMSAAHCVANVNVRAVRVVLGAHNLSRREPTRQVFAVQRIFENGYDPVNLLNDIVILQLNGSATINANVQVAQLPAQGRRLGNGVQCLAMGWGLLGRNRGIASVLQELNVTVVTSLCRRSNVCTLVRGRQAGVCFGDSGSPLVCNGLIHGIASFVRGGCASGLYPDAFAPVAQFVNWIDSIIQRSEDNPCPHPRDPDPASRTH
Procedure: It was of interest to investigate the inhibitory action against elastase by the powder extract of the invention and to compare it with that of ceramide 3 alone.
The inhibitory action of the powder extract of the invention against EHL was examined in an aqueous solution of a Tris-HCl buffer, using N-methoxysuccinyl-alanyl-alanyl-prolyl-valyl-para-nitroanilide as a synthetic substrate.
The kinetics of the reaction were determined by spectrophotometry at 405 nm, enabling the measurement of the release of para-nitroanilide, which is a coloured product. The percent inhibitory action of the preparation against the elastase was determined by comparison with a reference curve (hydrolysis of the substrate in the absence of an inhibitor).

Inhibitory activity against elastase (in words) [2]: practically no inhibitory activity
Substance: 2,3-di-O-(fatty acid acyl)-1-O-[6′-O-α-D-galactopyranosyl-β-galactopyranosyl]-D-glycerine [Dgdg]
Slowing-down of the reduction of cytochrome c [1]: 36.1%
